These results are taken from patent US20170190671A1, “BIS(ARYL)CATECHOL DERIVATIVES AS HERBICIDES” (E I DU PONT DE NEMOURS AND COMPANY, priority 2014, published 2017).

Experiment in all cases: Test C preemergence
What all share (assay type): in vivo

In test [1] the test system is galium (catchweed bedstraw, Galium aparine). The conditions noted are these: scale 0 to 100; for pest or weed control at 31 g/ha / pest or weed control at 62 g/ha / pest or weed control at 125 g/ha / pest or weed control at 16 g/ha: Galium, pre-emergence, 336 h, read-out: Plant response rating, Galium; for pest or weed control at 16 g/ha: 16 g ai/ha. The source says:
(§1) Seeds of plant species selected from blackgrass (Alopecurus myosuroides), Italian ryegrass (Lolium multiflorum), winter wheat (Triticum aestivum), galium (catchweed bedstraw, Galium aparine), corn (Zea mays), large (Lg) crabgrass (Digitaria sanguinalis), giant foxtail (Setaria faberii), johnsongrass (Sorghum halepense), lambsquarters (Chenopodium album), morningglory (Ipomoea coccinea), yellow nutsedge (Cyperus esculentus), pigweed (Amaranthus retroflexus), ragweed (common ragweed, Ambrosia elatior), soybean (Glycine max), barnyardgrass (Echinochloa crus-galli), oilseed rape (Brassica napus), waterhemp (common waterhemp, Amaranthus rudis), and velvetleaf (Abutilon theophrasti) were planted into a blend of loam soil and sand and treated preemergence with test chemicals formulated in a non-phytotoxic solvent mixture which included a surfactant.
(§2) At the same time, plants selected from these crop and weed species and also chickweed (common chickweed, Stellaria media), kochia (Kochia scoparia), and wild oat (Avena fatua), were planted in pots containing Redi-Earth® planting medium (Scotts Company, 14111 Scottslawn Road, Marysville, Ohio 43041) comprising spaghnum peat moss, vermiculite, wetting agent and starter nutrients and treated with postemergence applications of test chemicals formulated in the same manner. Plants ranged in height from 2 to 18 cm (1- to 4-leaf stage) for postemergence treatments. Treated plants and controls were maintained in a greenhouse for 13 to 15 days, after which time all species were compared to controls and visually evaluated. Plant response ratings, summarized in Table C, are based on a scale of 0 to 100 where 0 is no effect and 100 is complete control. A dash (-) response means no test result.

For test [2], the system named is oilseed rape (Brassica napus). The conditions noted are these: scale 0 to 100; for plant injury at 31 g/ha / plant injury at 62 g/ha / plant injury at 125 g/ha / plant injury at 16 g/ha: Brassica napus, pre-emergence, read-out: Plant response rating, Oilseed Rape; for plant injury at 16 g/ha: 16 g ai/ha.
Description: as §1, §2

For test [3], the system named is morningglory (Ipomoea coccinea). The conditions noted are these: scale 0 to 100; for pest or weed control at 31 g/ha / pest or weed control at 62 g/ha / pest or weed control at 125 g/ha / pest or weed control at 16 g/ha: Ipomoea, pre-emergence, 336 h, read-out: Plant response rating, Morningglory; for pest or weed control at 16 g/ha: 16 g ai/ha.
Description: as §1, §2

The test system of test [4] is waterhemp (common waterhemp, Amaranthus rudis). The conditions noted are these: scale 0 to 100; for pest or weed control at 31 g/ha / pest or weed control at 62 g/ha / pest or weed control at 125 g/ha / pest or weed control at 16 g/ha: Amaranthus tuberculatus, pre-emergence, read-out: Plant response rating, Waterhemp; for pest or weed control at 16 g/ha: 16 g ai/ha.
Description: as §1, §2

`N#Cc1cccc(Oc2ncc(Br)cn2)c1Oc1ncc(Cl)cn1` [Compound 5, 3-[(5-bromo-2-pyrimidinyl)oxy]-2-[(5-chloro-2-pyrimidinyl)oxy]benzonitrile]: the pest or weed control at 31 g/ha in test [1] (31 g ai/ha, preemergence) turned out to be 50%; in test [3] (31 g ai/ha, preemergence), 60%; in test [4] (31 g ai/ha, preemergence), 100%. Moreover, the pest or weed control at 62 g/ha worked out at 100% in test [1] (62 g ai/ha, preemergence); 80% in test [3] (62 g ai/ha, preemergence); 100% in test [4] (62 g ai/ha, preemergence). Moreover, the pest or weed control at 125 g/ha in test [1] (125 g ai/ha, preemergence) is 100%; in test [3] (125 g ai/ha, preemergence) it was 95%; in test [4] (125 g ai/ha, preemergence), 100%. Besides, the plant injury at 31 g/ha in test [2] (31 g ai/ha, preemergence) came out at 70%. The plant injury at 62 g/ha in test [2] (62 g ai/ha, preemergence) amounted to 98%. In addition, the plant injury at 125 g/ha in test [2] (125 g ai/ha, preemergence) was found to be 100%. Besides, the pest or weed control at 16 g/ha came out at 30% in test [3] (Preemergence) and 85% in test [4] (Preemergence).
On to `N#Cc1cccc(Oc2ncc(Cl)cn2)c1Oc1ccc(Br)cn1` [Compound 15], for which the pest or weed control at 31 g/ha in test [1] (31 g ai/ha, preemergence) was 100%; in test [3] (31 g ai/ha, preemergence), 5%; in test [4] (31 g ai/ha, preemergence) it was 100%. The pest or weed control at 62 g/ha in test [1] (62 g ai/ha, preemergence) was 95%; in test [3] (62 g ai/ha, preemergence), 40%; in test [4] (62 g ai/ha, preemergence) it was 100%. In addition, the pest or weed control at 125 g/ha in test [1] (125 g ai/ha, preemergence) came out at 100%; in test [3] (125 g ai/ha, preemergence) it was 70%; in test [4] (125 g ai/ha, preemergence), 100%. Moreover, the values for the pest or weed control at 16 g/ha in test [1] (Preemergence), in test [3] (Preemergence) and in test [4] (Preemergence) were 100%, 5% and 100%, respectively. Further, the plant injury at 31 g/ha in test [2] (31 g ai/ha, preemergence) worked out at 98%. Moreover, in test [2] (62 g ai/ha, preemergence), the plant injury at 62 g/ha was 100%. Also, the plant injury at 125 g/ha in test [2] (125 g ai/ha, preemergence) amounted to 100%. Also, the plant injury at 16 g/ha in test [2] (Preemergence) is 25%.
`Clc1cnc(Oc2cccc(Br)c2Oc2ncc(Cl)cn2)nc1` [Compound 19, 2,2′-[[3-bromo-1,2-phenylene]bis(oxy)]bis[5-chloropyrimidine]]: the pest or weed control at 31 g/ha worked out at 100% in test [1] (31 g ai/ha, preemergence); 45% in test [3] (31 g ai/ha, preemergence); 100% in test [4] (31 g ai/ha, preemergence). The pest or weed control at 62 g/ha in test [1] (62 g ai/ha, preemergence) was 100%; in test [3] (62 g ai/ha, preemergence) it was 90%; in test [4] (62 g ai/ha, preemergence), 100%. The pest or weed control at 125 g/ha is 100% in test [1] (125 g ai/ha, preemergence); 100% in test [3] (125 g ai/ha, preemergence); 100% in test [4] (125 g ai/ha, preemergence). Besides, the pest or weed control at 16 g/ha in test [1] (Preemergence) stood at 85%; in test [3] (Preemergence) it was 5%; in test [4] (Preemergence) it was 100%. In addition, in test [2] (31 g ai/ha, preemergence), the plant injury at 31 g/ha is 85%. The plant injury at 62 g/ha in test [2] (62 g ai/ha, preemergence) was determined as 98%. Moreover, the plant injury at 125 g/ha in test [2] (125 g ai/ha, preemergence) came to 100%. In test [2] (Preemergence), the plant injury at 16 g/ha worked out at 30%.
Take `FC(F)(F)c1cnc(Oc2c(Br)cccc2Oc2ncc(Cl)cn2)nc1` [Compound 24]: the “Plant response rating, Galium” value in test [1] (31 g ai/ha, Preemergence) is 98; in test [1] (62 g ai/ha, Preemergence) it was 98; in test [1] (125 g ai/ha, Preemergence) it was 100; in test [1] (250 g ai/ha, preemergence), 100. Besides, the “Plant response rating, Oilseed Rape” value in test [2] (31 g ai/ha, Preemergence) was 80; in test [2] (62 g ai/ha, Preemergence) it was 100; in test [2] (125 g ai/ha, Preemergence), 100; in test [2] (250 g ai/ha, preemergence) it was 100. In addition, the “Plant response rating, Morningglory” value came out at 25 in test [3] (31 g ai/ha, Preemergence); 85 in test [3] (62 g ai/ha, Preemergence); 80 in test [3] (125 g ai/ha, Preemergence); 95 in test [3] (250 g ai/ha, preemergence). The “Plant response rating, Waterhemp” value in test [4] (31 g ai/ha, Preemergence) worked out at 100; in test [4] (62 g ai/ha, Preemergence), 100; in test [4] (125 g ai/ha, Preemergence), 100; in test [4] (250 g ai/ha, preemergence), 100.
